Experimental data from patent publication US20250340574A1, “MODULATORS OF CYSTIC FIBROSIS TRANSMEMBRANE CONDUCTANCE REGULATOR” (Vertex Pharmaceuticals Incorporated, priority 2022, published 2025).
Read-outs that look alike come from different tables or passages of the source.

Biological target: T1, CFTR (F508del/MF-HBE cells) (Homo sapiens, UniProt P13569, DEL508-508)
T1 construct: human bronchial epithelial (HBE) cells derived from CF subjects heterozygous for F508del and a minimal function CFTR mutation (F508del/MF-HBE); endogenous in cells; host or cells: Primary human bronchial epithelial cells from CF subjects (F508del/MF genotype), differentiated at an air-liquid interface
Test: Ussing chamber assay of CFTR-mediated short-circuit currents, Assay C (0.026 μM to 25 μM, 6 concentrations)
Assay type: cell-based
Conditions: with 33 nM potentiator and 18 μM Tezacaftor, 20% human serum; for Emax: read-out: C Max activity (%)
Procedure: Ussing chamber experiments were performed using human bronchial epithelial (HBE) cells derived from CF subjects heterozygous for F508del and a minimal function CFTR mutation (F508del/MF-HBE) and cultured as previously described (Neuberger T, Burton B, Clark H, Van Goor F Methods Mol Biol 2011:741:39-54). After four days the apical media was removed, and the cells were grown at an air liquid interface for >14 days prior to use.
To isolate the CFTR-mediated short-circuit (ISC) current, F508del/MF-HBE grown on Costar® Snapwell™ cell culture inserts were mounted in an Ussing chamber and the transepithelial ISC was measured under voltage-clamp recording conditions (Vhold=0 mV) at 37° C. The basolateral solution contained (in mM) 145 NaCl, 0.83 K2HPO4, 3.3 KH2PO4, 1.2 MgCl2, 1.2 CaCl2, 10 Glucose, 10 HEPES (pH adjusted to 7.4 with NaOH) and the apical solution contained (in mM) 145 NaGluconate, 1.2 MgCl2, 1.2 CaCl2, 10 glucose, 10 HEPES (pH adjusted to 7.4 with NaOH) and 30 μM amiloride to block the epithelial sodium channel. Forskolin (20 μM) was added to the apical surface to activate CFTR, followed by apical addition of a CFTR inhibitor cocktail consisting of BPO, GlyH-101, and CFTR inhibitor 172 (each at 20 μM final assay concentration) to specifically isolate CFTR currents. The CFTR-mediated ISC (μA/cm^2) for each condition was determined from the peak forskolin response to the steady-state current following inhibition.
The activity of the CFTR corrector compounds on the CFTR-mediated ISC was determined in Ussing chamber studies as described above. The F508del/MF-HBE cell cultures were either incubated with the corrector compounds at a range of concentrations in combination with 33 nM (6R,12R)-17-amino-12-methyl-6,15-bis(trifluoromethyl)-13,19-dioxa-3,4,18-triazatricyclo[12.3.1.12,5]nonadeca-1(18),2,4,14,16-pentaen-6-ol and 18 μM Tezacaftor or were incubated with the corrector compounds at a single fixed concentration of 1 μM in combination with 44 nM (6R,12R)-17-amino-12-methyl-6,15-bis(trifluoromethyl)-13,19-dioxa-3,4,18-triazatricyclo[12.3.1.12,5]nonadeca-1(18),2,4,14,16-pentaen-6-ol and 18 μM Tezacaftor for 18-24 hours at 37° C. and in the presence of 20% human serum. The concentration of corrector compounds with 44 nM or 33 nM (6R,12R)-17-amino-12-methyl-6,15-bis(trifluoromethyl)-13,19-dioxa-3,4,18-triazatricyclo[12.3.1.12,5]nonadeca-1(18),2,4,14,16-pentaen-6-ol and 18 μM Tezacaftor during the 18-24 hours incubations was kept constant throughout the Ussing chamber measurement of the CFTR-mediated ISC to ensure compounds were present throughout the entire experiment. The efficacy and potency of the putative F508del correctors was compared to that of the known Vertex corrector, (14S)-8-[3-(2-{Dispiro[2.0.2.1]heptan-7-yl}ethoxy)-1H-pyrazol-1-yl]-12,12-dimethyl-2λ^6-thia-3,9,11,18,23-pentaazatetracyclo[17.3.1.111,14.05,10]tetracosa-1(22),5,7,9,19(23),20-hexaene-2,2,4-trione, in combination with 18 μM Tezacaftor and 1 μM Ivacaftor.
• Assay A: 0.1 μM to 25 μM, 6 concentrations • Assay B: 0.00001 μM to 25 μM, 12 concentrations • Assay C: 0.026 μM to 25 μM, 6 concentrations • Assay D: Activity at single concentration of 1 μM

T1 sequence (P13569 with tags, fused parts or gaps DEL508-508): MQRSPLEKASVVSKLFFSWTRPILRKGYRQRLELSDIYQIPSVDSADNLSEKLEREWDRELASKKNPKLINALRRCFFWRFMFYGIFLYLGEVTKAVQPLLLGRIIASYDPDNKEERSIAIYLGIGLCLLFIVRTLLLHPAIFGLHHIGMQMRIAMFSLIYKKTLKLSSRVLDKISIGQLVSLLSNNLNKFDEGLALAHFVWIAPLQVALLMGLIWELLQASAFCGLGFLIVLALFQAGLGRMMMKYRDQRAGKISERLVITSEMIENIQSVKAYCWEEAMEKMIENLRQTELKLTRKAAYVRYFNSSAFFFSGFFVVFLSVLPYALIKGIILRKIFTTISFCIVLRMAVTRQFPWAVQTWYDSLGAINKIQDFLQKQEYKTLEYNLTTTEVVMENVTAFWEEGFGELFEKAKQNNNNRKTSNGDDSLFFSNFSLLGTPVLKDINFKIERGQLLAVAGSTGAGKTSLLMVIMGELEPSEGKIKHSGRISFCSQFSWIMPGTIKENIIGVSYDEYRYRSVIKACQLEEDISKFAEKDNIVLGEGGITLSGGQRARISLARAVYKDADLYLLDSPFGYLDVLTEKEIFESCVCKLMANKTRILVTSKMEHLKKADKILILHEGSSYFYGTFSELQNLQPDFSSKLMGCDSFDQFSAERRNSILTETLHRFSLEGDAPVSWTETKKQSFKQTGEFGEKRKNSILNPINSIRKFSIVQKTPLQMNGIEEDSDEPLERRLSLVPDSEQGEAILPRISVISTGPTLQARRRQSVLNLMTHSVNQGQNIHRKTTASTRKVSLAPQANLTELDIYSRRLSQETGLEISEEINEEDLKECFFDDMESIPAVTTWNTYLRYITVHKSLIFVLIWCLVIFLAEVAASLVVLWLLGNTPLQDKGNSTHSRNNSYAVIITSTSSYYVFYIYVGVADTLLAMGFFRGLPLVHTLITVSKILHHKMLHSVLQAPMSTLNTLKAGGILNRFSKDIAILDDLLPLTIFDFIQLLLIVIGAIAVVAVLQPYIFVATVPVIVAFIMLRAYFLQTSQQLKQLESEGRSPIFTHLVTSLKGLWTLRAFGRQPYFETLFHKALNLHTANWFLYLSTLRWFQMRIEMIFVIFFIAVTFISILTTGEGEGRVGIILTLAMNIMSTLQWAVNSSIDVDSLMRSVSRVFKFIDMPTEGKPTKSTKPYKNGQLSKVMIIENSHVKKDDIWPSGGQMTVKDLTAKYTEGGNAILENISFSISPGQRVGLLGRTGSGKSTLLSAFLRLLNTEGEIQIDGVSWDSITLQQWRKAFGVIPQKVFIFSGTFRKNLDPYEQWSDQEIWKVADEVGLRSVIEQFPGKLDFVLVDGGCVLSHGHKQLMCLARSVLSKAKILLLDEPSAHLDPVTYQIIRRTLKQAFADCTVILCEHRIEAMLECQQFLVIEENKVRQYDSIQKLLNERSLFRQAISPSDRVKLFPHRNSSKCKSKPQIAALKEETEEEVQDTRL

Emax (18-24 hours) [%] | EC50 [nM] | Emax [%] | SMILES
> 60 | 1000 to 3000 |  | Cc1cccc(C)c1-c1cc2nc(n1)NS(=O)(=O)c1cccc(c1)C(=O)N(Cc1nc3cc(C4CC4)oc3cc1F)[C@H](COC(C)C)CO2 [Compound I-198]
> 60 | < 1000 |  | Cc1cccc(CC2CCCCC2)c1-c1nc2nc(c1C)OC[C@@H](CC(C)(C)C)N(Cc1cnc3cc(C(C)C)n(C)c3n1)C(=O)c1cccc(c1)S(=O)(=O)N2 (atropisomer, axis not shown) [Compound I-178]
 | < 1000 | > 60 | Cc1cccc(CC(C)C)c1-c1nc2nc(c1C)OC[C@@H]([C@@H]1CCCO1)N(Cc1cnc3cc(C(C)(C)C)n(C)c3n1)C(=O)c1cccc(c1)S(=O)(=O)N2 (atropisomer, axis not shown) [IV-95]
> 60 | < 1000 |  | Cc1cccc(CC(C)(C)C)c1-c1nc2nc(c1C)OC[C@@H](CC(C)(C)C)N(Cc1cnc3oc(C(C)(C)C)cc3n1)C(=O)c1cccc(c1)S(=O)(=O)N2 (atropisomer, axis not shown) [Compound I-245]
 | 3000 to 30000 | > 60 | Cc1cccc(C)c1-c1cc2nc(n1)NS(=O)(=O)c1cccc(c1)C(=O)N(Cc1cnc3oc(C4(C)CC4)cc3n1)[C@H](C[C@@H]1CCCCO1)CO2 [IV-87]
> 60 | 1000 to 3000 |  | Cc1cccc(C)c1-c1cc2nc(n1)NS(=O)(=O)c1cccc(c1)C(=O)N(Cc1cnc3oc(C(C)CO)cc3n1)[C@H](CC1(C)CC1)CO2 (stereo partly shown) [Compound I-256]
> 60 | < 1000 |  | Cc1cccc(CC(C)C)c1-c1nc2nc(c1C)OC[C@@H](CC13CC(C1)C3)N(Cc1cnc3oc(C(C)(C)C)cc3n1)C(=O)c1cccc(c1)S(=O)(=O)N2 [Compound I-247]
> 60 | 3000 to 30000 |  | Cc1cccc(C)c1-c1cc2nc(n1)NS(=O)(=O)c1cccc(c1)C(=O)N(Cc1cnc3oc(C(C)(C)C)cc3n1)[C@H](COC(C)C)CO2 [Compound I-174]
> 60 | 1000 to 3000 |  | Cc1cccc(CC(C)C)c1-c1nc2nc(c1C)OC[C@@H](CC(C)(C)C)N(Cc1cnc3oc(C4(C)CC4)cc3n1)C(=O)c1cccc(c1)S(=O)(=O)N2 (atropisomer, axis not shown) [Compound I-257]
 | 3000 to 30000 | > 60 | Cc1cccc(C)c1-c1cc2nc(n1)NS(=O)(=O)c1cccc(c1)C(=O)N(Cc1cnc3oc(C4(C)CC4)cc3n1)[C@H](C[C@H]1CCCCO1)CO2 [IV-88]
 | < 1000 | > 60 | Cc1cccc(C)c1-c1cc2nc(n1)NS(=O)(=O)c1cccc(c1)C(=O)N(Cc1ccn3cc(C(C)C)nc3n1)[C@H](CC13CC(C1)C3)CO2 [IV-63, (11R)-11-(1-Bicyclo[1.1.1]pentanylmethyl)-6-(2,6-dimethylphenyl)-12-[(2-isopropyl-imidazo[1,2-a]pyrimidin-7-yl)methyl]-2,2-dioxo-9-oxa-2λ^6-thia-3,5,12,19-tetrazatricyclo[12.3.1.14,8]nonadeca-1(18),4(19),5,7,14,16-hexaen-13-one]
 | < 1000 | > 60 | Cc1cccc(C)c1-c1nc2nc(c1C)OC[C@@H](C[C@@H]1CCCO1)N(Cc1cnc3cc(C4(C(F)(F)F)CC4)n(C)c3n1)C(=O)c1cccc(c1)S(=O)(=O)N2 [IV-105]
> 60 | 1000 to 3000 |  | C=C(C)c1cc2nc(CN3C(=O)c4cccc(c4)S(=O)(=O)Nc4nc(cc(-c5c(C)cccc5C)n4)OC[C@H]3CC3(C)CC3)cnc2o1 [Compound I-255, (11R)-6-(2,6-dimethylphenyl)-12-[(6-isopropenylfuro[2,3-b]pyrazin-2-yl)methyl]-11-[(1-methylcyclopropyl)methyl]-2,2-dioxo-9-oxa-2λ^6-thia-3,5,12,19-tetrazatricyclo[12.3.1.14,8]nonadeca-1(18),4(19),5,7,14,16-hexaen-13-one]
 | 1000 to 3000 | > 60 | Cc1cccc(C)c1-c1cc2nc(n1)NS(=O)(=O)c1cccc(c1)C(=O)N(Cc1cnc3cc(C4(C(F)(F)F)CC4)n(C)c3n1)[C@H](C[C@@H]1CCCO1)CO2 [IV-103]
 | < 1000 | > 60 | Cc1cccc(CC(C)C)c1-c1nc2nc(c1C)OC[C@@H](C[C@@H]1CCCCO1)N(Cc1cnc3cc(C(C)(C)C)n(C)c3n1)C(=O)c1cccc(c1)S(=O)(=O)N2 (atropisomer, axis not shown) [IV-81]
 | 1000 to 3000 | > 60 | CCc1cccc(CC)c1-c1nc2nc(c1C)OC[C@@H](CC(C)(C)C)N(Cc1cnc3cc(C4(C)CC4)n(C)c3n1)C(=O)c1cccc(c1)S(=O)(=O)N2 [IV-90]
 | < 1000 | > 60 | COCCc1c(C(C)(C)C)n(C)c2nc(CN3C(=O)c4cccc(c4)S(=O)(=O)Nc4nc(cc(-c5c(C)cccc5C)n4)OC[C@H]3CC34CC(C3)C4)cnc12 [IV-82, (11R)-11-(1-bicyclo[1.1.1]pentanylmethyl)-12-[[6-tert-butyl-7-(2-methoxyethyl)-5-methyl-pyrrolo[2,3-b]pyrazin-3-yl]methyl]-6-(2,6-dimethylphenyl)-2,2-dioxo-9-oxa-2λ^6-thia-3,5,12,19-tetrazatricyclo[12.3.1.14,8]nonadeca-1(18),4(19),5,7,14,16-hexaen-13-one]
> 60 | < 1000 |  | Cc1cccc(C)c1-c1nc2nc(c1C)OC[C@@H](CC(C)(C)C)N(Cc1ncc3oc(C(C)(C)C)cc3n1)C(=O)c1cccc(c1)S(=O)(=O)N2 [Compound I-259]
 | 1000 to 3000 | > 60 | CCc1cccc(CC)c1-c1cc2nc(n1)NS(=O)(=O)c1cccc(c1)C(=O)N(Cc1cnc3cc(C4(C)CC4)n(C)c3n1)[C@H](CC(C)(C)C)CO2 [IV-71]
 | 3000 to 30000 | > 60 | CCc1cccc(CC)c1-c1cc2nc(n1)NS(=O)(=O)c1cccc(c1)C(=O)N(Cc1cnc3oc(C(C)(C)C)cc3n1)[C@H](CC(C)(C)C)CO2 [IV-67]
 | 1000 to 3000 | > 60 | COc1c2nc(nc1-c1c(C)cccc1C)NS(=O)(=O)c1cccc(c1)C(=O)N(Cc1cnc3cc(C4(C(F)(F)F)CC4)n(C)c3n1)[C@H](COC(C)C)CO2 [IV-104]
> 60 | 1000 to 3000 |  | Cc1cccc(C)c1-c1cc2nc(n1)NS(=O)(=O)c1cccc(c1)C(=O)N(Cc1cnc3c(n1)CN(C(C)C)C3=O)[C@H](CC1(C)CC1)CO2 [III-18]
 | 1000 to 3000 | 30 to 60 | Cc1cccc(C)c1-c1cc2nc(n1)NS(=O)(=O)c1cccc(c1)C(=O)N(Cc1cnc3cc(C4(C(F)(F)F)CC4)n(C)c3n1)[C@H](CC1(C)CC1)CO2 [IV-75]
 | < 1000 | > 60 | Cc1cccc(C)c1-c1cc2nc(n1)NS(=O)(=O)c1cccc(c1)C(=O)N(Cc1cnc3cc(C(C)(C)C)n(C)c3n1)[C@@H](C(C1CCC1)C1CCC1)CO2 [IV-50]
 | 3000 to 30000 | > 60 | Cc1cccc(C)c1-c1cc2nc(n1)NS(=O)(=O)c1cccc(c1)C(=O)N(Cc1cnc3oc(C4CC4)cc3n1)[C@H]([C@H](C)OCc1ccccc1)CO2 [IV-62]
 | 1000 to 3000 | > 60 | Cc1cccc(C)c1-c1cc2nc(n1)NS(=O)(=O)c1cccc(c1)C(=O)N(Cc1cnc3oc(C4CC4)cc3n1)[C@@H](C1(C(C)C)CC1)CO2 (single isomer, unassigned) [IV-61, 12-[(6-cyclopropylfuro[2,3-b]pyrazin-2-yl)methyl]-6-(2,6-dimethylphenyl)-11-(1-isopropylcyclopropyl)-2,2-dioxo-9-oxa-2λ^6-thia-3,5,12,19-tetrazatricyclo[12.3.1.14,8]nonadeca-1(18),4(19),5,7,14,16-hexaen-13-one]
